According to PMC11864979, “First-in-class ultralong-target-residence-time p38α inhibitors as a mitosis-targeted therapy for colorectal cancer” (Nature Cancer, 2025):
Like-named read-outs stand apart in the source and are kept apart here.

Key:
Assay in all cases: selectivity profiling in a panel of 340 wild-type kinases (Reaction Biology Europe)
Type in all cases: binding
340 wild-type kinases [1] = target: T1, 340 wild-type kinases (Homo sapiens, UniProt O94806)
T1 construct: purchased Reaction Biology Europe
T1 sequence (O94806 1-890): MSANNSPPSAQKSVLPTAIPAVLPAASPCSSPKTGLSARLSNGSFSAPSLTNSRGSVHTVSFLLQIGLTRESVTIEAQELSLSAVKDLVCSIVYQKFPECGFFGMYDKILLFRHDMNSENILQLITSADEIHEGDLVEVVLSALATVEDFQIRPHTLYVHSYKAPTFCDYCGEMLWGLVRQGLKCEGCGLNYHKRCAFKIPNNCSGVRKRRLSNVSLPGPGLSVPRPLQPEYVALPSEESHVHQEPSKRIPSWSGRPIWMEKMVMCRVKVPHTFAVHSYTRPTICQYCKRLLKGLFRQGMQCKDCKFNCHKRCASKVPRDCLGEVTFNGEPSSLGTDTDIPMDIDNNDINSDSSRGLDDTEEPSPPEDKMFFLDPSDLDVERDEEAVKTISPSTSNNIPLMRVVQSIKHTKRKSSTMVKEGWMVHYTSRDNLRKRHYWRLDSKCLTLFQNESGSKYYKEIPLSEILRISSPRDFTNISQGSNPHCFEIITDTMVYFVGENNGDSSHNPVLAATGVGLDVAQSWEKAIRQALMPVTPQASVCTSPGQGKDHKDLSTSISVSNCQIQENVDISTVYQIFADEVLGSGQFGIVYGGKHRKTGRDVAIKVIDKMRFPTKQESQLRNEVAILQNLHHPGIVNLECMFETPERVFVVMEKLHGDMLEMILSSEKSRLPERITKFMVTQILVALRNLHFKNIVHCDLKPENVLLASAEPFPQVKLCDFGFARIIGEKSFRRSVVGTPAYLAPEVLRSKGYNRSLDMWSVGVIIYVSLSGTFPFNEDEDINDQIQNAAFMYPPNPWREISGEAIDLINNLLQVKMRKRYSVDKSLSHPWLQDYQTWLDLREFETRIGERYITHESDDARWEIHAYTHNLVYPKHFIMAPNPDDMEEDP

340 wild-type kinases [2] = target: T2, 340 wild-type kinases (Homo sapiens, UniProt P04049, Y340D/Y341D); settings: read-out: RAF1 YDYD residual activity
T2 construct: purchased Reaction Biology Europe

340 wild-type kinases [3] = target: T3, 340 wild-type kinases (Homo sapiens, UniProt Q8TD19)
T3 construct: purchased Reaction Biology Europe
T3 sequence (Q8TD19 1-979): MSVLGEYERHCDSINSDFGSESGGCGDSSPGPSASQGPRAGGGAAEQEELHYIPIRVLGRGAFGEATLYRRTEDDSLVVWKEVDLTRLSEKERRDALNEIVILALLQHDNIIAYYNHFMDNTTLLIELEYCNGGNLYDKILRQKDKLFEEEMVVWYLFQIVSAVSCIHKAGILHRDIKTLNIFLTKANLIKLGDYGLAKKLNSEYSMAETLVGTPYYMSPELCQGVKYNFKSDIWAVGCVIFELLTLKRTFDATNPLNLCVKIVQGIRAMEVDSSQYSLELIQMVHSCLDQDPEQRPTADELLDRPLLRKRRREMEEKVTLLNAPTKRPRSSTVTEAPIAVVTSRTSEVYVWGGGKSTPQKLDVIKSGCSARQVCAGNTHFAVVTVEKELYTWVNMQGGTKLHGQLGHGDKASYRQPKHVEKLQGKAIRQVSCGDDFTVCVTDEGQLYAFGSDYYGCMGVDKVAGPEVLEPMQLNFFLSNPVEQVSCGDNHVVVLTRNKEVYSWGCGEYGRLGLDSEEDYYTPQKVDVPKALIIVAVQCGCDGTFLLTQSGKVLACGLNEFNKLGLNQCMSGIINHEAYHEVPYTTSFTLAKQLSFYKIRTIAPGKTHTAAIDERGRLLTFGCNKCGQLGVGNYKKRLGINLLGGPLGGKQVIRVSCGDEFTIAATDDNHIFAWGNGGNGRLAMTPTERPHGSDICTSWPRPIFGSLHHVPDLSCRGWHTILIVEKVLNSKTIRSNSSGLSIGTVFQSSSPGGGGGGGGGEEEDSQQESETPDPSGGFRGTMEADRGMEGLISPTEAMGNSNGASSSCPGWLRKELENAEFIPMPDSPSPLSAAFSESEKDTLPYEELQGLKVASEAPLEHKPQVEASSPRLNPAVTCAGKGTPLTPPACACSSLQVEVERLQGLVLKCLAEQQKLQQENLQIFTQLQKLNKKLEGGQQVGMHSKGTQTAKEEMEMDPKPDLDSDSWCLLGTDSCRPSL

340 wild-type kinases [4] = target: T4, 340 wild-type kinases (Homo sapiens, UniProt Q9BZL6)
T4 construct: purchased Reaction Biology Europe
T4 sequence (Q9BZL6 1-878): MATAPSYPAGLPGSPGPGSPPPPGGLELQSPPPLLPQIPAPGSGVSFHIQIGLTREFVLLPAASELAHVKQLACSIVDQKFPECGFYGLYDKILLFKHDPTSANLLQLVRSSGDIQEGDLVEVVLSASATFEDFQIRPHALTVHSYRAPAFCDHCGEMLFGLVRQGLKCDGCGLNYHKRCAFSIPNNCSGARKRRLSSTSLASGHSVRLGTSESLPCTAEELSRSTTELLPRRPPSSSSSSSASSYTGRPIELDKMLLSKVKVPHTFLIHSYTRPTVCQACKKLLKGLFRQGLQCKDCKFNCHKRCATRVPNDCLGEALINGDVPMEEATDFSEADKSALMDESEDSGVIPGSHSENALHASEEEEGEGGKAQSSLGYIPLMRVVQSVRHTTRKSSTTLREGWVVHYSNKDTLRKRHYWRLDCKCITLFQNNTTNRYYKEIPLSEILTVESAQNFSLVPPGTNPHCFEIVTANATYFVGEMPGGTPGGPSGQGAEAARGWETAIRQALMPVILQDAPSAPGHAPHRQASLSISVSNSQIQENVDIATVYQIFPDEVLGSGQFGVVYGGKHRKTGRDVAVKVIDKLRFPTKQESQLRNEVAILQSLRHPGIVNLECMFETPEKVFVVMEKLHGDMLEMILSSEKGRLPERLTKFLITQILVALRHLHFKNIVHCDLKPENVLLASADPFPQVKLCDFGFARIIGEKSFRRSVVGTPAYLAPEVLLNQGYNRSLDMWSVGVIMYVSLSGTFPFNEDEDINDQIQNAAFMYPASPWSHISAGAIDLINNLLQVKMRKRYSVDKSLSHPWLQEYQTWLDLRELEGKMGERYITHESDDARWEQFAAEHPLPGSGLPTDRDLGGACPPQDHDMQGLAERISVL

T2 sequence (P04049 whole entry Y340D/Y341D): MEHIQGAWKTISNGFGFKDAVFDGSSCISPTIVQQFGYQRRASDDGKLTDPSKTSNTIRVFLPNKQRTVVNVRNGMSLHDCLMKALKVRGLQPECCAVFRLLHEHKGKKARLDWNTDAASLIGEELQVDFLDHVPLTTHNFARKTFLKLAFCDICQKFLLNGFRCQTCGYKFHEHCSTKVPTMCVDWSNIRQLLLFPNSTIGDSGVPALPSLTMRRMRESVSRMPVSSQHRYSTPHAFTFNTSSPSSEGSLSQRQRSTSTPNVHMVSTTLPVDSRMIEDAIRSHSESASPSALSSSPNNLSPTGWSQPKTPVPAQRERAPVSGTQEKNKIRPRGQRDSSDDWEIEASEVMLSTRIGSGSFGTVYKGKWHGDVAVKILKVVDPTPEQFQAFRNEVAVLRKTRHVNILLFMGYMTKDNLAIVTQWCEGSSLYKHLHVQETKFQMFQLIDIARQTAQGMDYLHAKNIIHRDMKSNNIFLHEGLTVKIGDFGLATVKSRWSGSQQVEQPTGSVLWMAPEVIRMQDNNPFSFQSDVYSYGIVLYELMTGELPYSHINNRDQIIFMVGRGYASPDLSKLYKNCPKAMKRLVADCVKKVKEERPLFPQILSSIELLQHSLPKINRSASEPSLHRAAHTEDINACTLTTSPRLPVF

Work on `CNC(=O)c1ccc2c(c1)C(=O)c1ccc(Nc3ccc(F)c(NC(=O)C4CC4)c3)cc1CC2` [Compound 2015] yielded a remaining activity at 0.2 µM (340 wild-type kinases [1]; 0.2 µM 2015, read-out: PKCnu residual activity) of 88.9%, a remaining activity at 1 µM (340 wild-type kinases [1]; 1 µM 2015, read-out: PKCnu residual activity) of 96.9% and a remaining activity at 0.2 µM (340 wild-type kinases [1]; PKCnu, 0.2 µM, read-out: residual activity) of 88.9%. The remaining activity at 1 µM (340 wild-type kinases [1]; PKCnu, 1 µM, read-out: residual activity) was 96.9%, the remaining activity at 0.2 µM (340 wild-type kinases [2]; 0.2 µM 2015) was 80.3% and the remaining activity at 1 µM (340 wild-type kinases [2]; 1 µM 2015) was 88.8%. For the same molecule, the remaining activity at 0.2 µM (340 wild-type kinases [3]; 0.2 µM 2015, read-out: NEK9 residual activity) was 96.5%, the remaining activity at 1 µM (340 wild-type kinases [3]; 1 µM 2015, read-out: NEK9 residual activity) was 93% and the remaining activity at 0.2 µM (340 wild-type kinases [3]; NEK9, 0.2 µM, read-out: residual activity) was 96.5%. The remaining activity at 1 µM (340 wild-type kinases [3]; NEK9, 1 µM, read-out: residual activity) was 93%, the remaining activity at 0.2 µM (340 wild-type kinases [4]; 0.2 µM 2015, read-out: PRKD2 residual activity) was 66.4% and the remaining activity at 1 µM (340 wild-type kinases [4]; 1 µM 2015, read-out: PRKD2 residual activity) was 91.3%. For the same molecule, the remaining activity at 0.2 µM (340 wild-type kinases [4]; PRKD2, 0.2 µM, read-out: residual activity) was 66.4% and the remaining activity at 1 µM (340 wild-type kinases [4]; PRKD2, 1 µM, read-out: residual activity) was 91.3%.
